# Key:
# [1] = target: T1, Btk kinase (aa2-659, Carna Biosciences) (Homo sapiens, UniProt Q06187); experiment: Btk kinase enzymatic assay (TR-FRET); assay type: biochemical; settings: for IC50: TR-FRET, 30 μM ATP, compound incubated with kinase 60 minutes
# T1 construct: purchased Carna Biosciences
# [2] = target: T2, phosphorylated Btk at Tyr223 (Homo sapiens, UniProt Q06187); experiment: Btk pY223 cellular assay (HTRF, Ramos cells); assay type: cell-based; settings: compound 3 hours, pervanadate or Na3VO4 stimulation, read-out: IC50 (nM) in cell Btk pY223
# T2 construct: determine the endogenous levels of phosphorylated Btk at Tyr223; endogenous in cells; host or cells: Ramos cells (CRL-1596, ATCC)
# T2 sequence (Q06187 whole entry): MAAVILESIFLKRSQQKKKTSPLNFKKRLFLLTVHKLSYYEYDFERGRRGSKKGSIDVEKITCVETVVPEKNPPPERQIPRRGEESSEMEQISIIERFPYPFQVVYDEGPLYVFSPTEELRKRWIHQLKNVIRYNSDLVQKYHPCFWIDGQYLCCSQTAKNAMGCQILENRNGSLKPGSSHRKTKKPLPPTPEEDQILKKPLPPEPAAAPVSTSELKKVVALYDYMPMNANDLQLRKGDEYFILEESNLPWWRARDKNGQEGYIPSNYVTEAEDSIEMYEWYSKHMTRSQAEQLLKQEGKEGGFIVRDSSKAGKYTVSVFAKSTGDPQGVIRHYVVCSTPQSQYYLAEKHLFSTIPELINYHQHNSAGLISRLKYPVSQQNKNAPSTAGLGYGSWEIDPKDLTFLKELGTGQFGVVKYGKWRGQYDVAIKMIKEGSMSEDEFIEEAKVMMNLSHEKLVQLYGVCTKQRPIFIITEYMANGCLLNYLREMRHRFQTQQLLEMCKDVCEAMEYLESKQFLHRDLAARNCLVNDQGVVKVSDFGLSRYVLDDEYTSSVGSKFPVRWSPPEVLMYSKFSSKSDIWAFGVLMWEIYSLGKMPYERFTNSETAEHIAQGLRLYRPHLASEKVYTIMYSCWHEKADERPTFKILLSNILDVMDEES
# [3] = target: T3, Tec (Homo sapiens, UniProt P42680); experiment: Biochemical kinase selectivity: IC50 determination of Tec; settings: for IC50: TR-FRET, 280 μM ATP; for Fold of Tec/Btk: ratio of IC50 values
# T3 sequence (P42680 1-631): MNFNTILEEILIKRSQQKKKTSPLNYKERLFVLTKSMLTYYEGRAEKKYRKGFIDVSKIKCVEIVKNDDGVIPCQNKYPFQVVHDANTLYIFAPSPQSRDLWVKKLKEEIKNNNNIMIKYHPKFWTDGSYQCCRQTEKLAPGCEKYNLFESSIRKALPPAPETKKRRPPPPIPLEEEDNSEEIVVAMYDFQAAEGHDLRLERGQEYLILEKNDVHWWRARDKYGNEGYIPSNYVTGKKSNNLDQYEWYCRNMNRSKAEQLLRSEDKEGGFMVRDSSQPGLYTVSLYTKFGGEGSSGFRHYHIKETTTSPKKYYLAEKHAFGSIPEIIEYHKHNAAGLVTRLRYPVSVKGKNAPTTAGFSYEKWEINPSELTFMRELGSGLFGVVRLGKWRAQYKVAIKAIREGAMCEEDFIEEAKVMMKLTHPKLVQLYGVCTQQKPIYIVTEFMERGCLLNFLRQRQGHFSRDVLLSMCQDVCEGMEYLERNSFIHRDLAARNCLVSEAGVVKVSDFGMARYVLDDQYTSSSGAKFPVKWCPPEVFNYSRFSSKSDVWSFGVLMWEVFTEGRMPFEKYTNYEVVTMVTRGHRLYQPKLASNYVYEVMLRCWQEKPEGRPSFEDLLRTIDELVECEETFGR
# [4] = target: EGFR (Homo sapiens, UniProt P00533); experiment: Biochemical kinase selectivity: IC50 determination of EGFR; settings: for IC50: TR-FRET, 20 μM ATP; for Fold of EGFR/Btk: ratio of IC50 values
# Sequence of EGFR (P00533 25-1210): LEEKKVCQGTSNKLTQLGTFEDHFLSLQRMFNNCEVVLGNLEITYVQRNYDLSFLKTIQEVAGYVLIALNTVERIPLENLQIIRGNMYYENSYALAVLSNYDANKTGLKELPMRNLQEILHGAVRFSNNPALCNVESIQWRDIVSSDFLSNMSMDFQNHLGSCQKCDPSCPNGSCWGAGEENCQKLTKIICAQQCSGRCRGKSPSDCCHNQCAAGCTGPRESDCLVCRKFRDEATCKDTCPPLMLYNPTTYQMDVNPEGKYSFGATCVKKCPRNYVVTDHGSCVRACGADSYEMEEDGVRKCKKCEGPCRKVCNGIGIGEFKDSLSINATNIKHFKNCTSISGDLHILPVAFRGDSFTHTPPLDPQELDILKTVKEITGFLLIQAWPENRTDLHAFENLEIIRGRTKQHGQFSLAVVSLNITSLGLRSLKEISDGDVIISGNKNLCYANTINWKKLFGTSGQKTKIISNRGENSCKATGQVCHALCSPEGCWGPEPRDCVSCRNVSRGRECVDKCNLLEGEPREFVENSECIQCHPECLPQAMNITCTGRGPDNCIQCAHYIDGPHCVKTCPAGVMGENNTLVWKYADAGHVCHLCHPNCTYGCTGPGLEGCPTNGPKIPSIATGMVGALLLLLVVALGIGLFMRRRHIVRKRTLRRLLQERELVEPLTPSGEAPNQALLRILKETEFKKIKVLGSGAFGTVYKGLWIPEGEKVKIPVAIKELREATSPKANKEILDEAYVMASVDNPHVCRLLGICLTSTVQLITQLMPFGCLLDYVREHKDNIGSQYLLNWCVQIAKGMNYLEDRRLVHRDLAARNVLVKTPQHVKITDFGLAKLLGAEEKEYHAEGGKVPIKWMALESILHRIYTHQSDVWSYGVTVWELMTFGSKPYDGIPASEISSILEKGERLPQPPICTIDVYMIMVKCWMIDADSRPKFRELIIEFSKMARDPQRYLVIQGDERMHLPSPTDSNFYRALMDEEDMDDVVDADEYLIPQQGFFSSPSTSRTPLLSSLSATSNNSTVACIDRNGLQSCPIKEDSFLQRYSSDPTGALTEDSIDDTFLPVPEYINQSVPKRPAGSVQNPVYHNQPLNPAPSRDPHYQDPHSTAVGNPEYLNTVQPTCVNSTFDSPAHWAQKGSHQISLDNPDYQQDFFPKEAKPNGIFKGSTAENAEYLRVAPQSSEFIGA
# T1 sequence (Q06187 2-659): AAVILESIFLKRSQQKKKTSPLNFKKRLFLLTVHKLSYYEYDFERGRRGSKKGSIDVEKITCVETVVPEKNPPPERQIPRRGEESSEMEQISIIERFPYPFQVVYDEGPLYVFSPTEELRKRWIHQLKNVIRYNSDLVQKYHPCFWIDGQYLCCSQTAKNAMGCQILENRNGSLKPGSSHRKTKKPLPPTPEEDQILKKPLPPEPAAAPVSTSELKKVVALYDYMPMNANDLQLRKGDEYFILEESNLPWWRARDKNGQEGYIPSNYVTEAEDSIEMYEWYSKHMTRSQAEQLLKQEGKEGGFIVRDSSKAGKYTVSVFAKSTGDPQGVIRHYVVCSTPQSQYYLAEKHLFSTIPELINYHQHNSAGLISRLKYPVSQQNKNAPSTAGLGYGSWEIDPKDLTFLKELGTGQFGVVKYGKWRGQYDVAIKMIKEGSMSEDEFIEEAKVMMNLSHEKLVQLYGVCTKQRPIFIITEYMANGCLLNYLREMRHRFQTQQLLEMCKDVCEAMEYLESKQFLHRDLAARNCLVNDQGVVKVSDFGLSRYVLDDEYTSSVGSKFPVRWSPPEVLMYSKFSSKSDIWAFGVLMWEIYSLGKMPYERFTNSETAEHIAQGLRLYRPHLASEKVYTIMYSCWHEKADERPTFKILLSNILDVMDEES
affinity / inhibitory activity for Btk (in words) [1],IC50 [1] [nM],IC50 [2] [nM],IC50 [3] [nM],Fold of Tec/Btk [3] [fold],IC50 [4] [nM],Fold of EGFR/Btk [4] [fold],SMILES
high affinity for Btk,1.1,50.5,137,125,2570,2339,"C=CC(=O)N1CCC(C2CCNc3c(C(N)=O)c(-c4cc(Cl)c(C5CC5)c(OC)c4)nn32)CC1 (stereo not drawn) [Example A36, 7-(1-acryloylpiperidin-4-yl)-2-(3-chloro-4-cyclopropyl-5-methoxyphenyl)-4,5,6,7-tetrahydropyrazolo[1,5-a]pyrimidine-3-carboxamide]"
,2.8,36.7,264,94,2250,803,"C=CC(=O)N1CCC(C2CCNc3c(C(N)=O)c(-c4cc(OC)c(C(F)(F)F)c(OC)c4)nn32)CC1 (stereo not drawn) [Example A38, 7-(1-acryloylpiperidin-4-yl)-2-(3,5-dimethoxy-4-(trifluoromethyl)phenyl)-4,5,6,7-tetrahydropyrazolo[1,5-a]pyrimidine-3-carboxamide]"
,3.3,66.8,101,31,1510,458,"C=CC(=O)N1CCC(C2CCNc3c(C(N)=O)c(-c4cc(OC)c(/C=C/c5ccccc5)c(OC)c4)nn32)CC1 (stereo not drawn) [Example A41, (E)-7-(1-acryloylpiperidin-4-yl)-2-(3,5-dimethoxy-4-styrylphenyl)-4,5,6,7-tetrahydropyrazolo[1,5-a]pyrimidine-3-carboxamide]"
high affinity for Btk,5.9,258,974,165,3810,646,"C=CC(=O)N1CCC(C2CCNc3c(C(N)=O)c(-c4cc(OC)c(C(C)O)c(OC)c4)nn32)CC1 (stereo not drawn) [Example A46, 7-(1-acryloylpiperidin-4-yl)-2-(4-(1-hydroxyethyl)-3,5-dimethoxyphenyl)-4,5,6,7-tetrahydropyrazolo[1,5-a]pyrimidine-3-carboxamide]"
,0.34,12.3,3.2,9.4,599,1762,"C#CC(=O)N1CCC(C2CCNc3c(C(N)=O)c(-c4cc(OC)c(C)c(OC)c4)nn32)CC1 (stereo not drawn) [Example A50, 2-(3,5-dimethoxy-4-methylphenyl)-7-(1-propioloylpiperidin-4-yl)-4,5,6,7-tetrahydropyrazolo[1,5-a]pyrimidine-3-carboxamide]"
,5,45.7,172,34,1750,350,"C=CC(=O)N1CC(C2CCNc3c(C(N)=O)c(-c4cc(OC)c(Br)c(OC)c4)nn32)C1 (stereo not drawn) [Example B2, 7-(1-acryloylazetidin-3-yl)-2-(4-bromo-3,5-dimethoxyphenyl)-4,5,6,7-tetrahydropyrazolo[1,5-a]pyrimidine-3-carboxamide]"
,5.9,93.1,157,27,1910,324,"C=CC(=O)N1CC(C2CCNc3c(C(N)=O)c(-c4cc(OC)c(C)c(OC)c4)nn32)C1 (stereo not drawn) [Example B3, 7-(1-acryloylazetidin-3-yl)-2-(3,5-dimethoxy-4-methylphenyl)-4,5,6,7-tetrahydropyrazolo[1,5-a]pyrimidine-3-carboxamide]"
high affinity for Btk,3.4,49.6,380,112,536,158,"C=CC(=O)N1CC2CNc3c(C(N)=O)c(-c4cc(OC)c(C)c(OC)c4)nn3C2C1 (stereo not drawn) [Example C1, 7-acryloyl-2-(3,5-dimethoxy-4-methylphenyl)-5,5a,6,7,8,8a-hexahydro-4H-pyrazolo[1,5-a]pyrrolo[3,4-e]pyrimidine-3-carboxamide]"
